Assay [1] has as its system HEK293. The assay is described as follows: inhibition of NOD1-driven NF-kB reporter – cell-based, luminescence, uHTS, primary screen (AID 1578). The class given is functional. Particulars: Homo sapiens.
The subject of assay [2] is HEK293. The assay is described as follows: cells. The class given is functional, cell-based. The conditions noted are these: Homo sapiens.
For assay [3], the system named is HEK293. The assay is described as follows: cells. The class given is functional, cell-based. The conditions noted are these: Homo sapiens. The source holds these as a separate data set.
Assay [4] relates to HEK293. Briefly: NOD2 signaling inhibitors in MDP-stimulated cells, cell-based, uHTS, luminescence (AID 2001). The class given is functional. The conditions noted are these: Homo sapiens.
Another assay has as its target Tumor necrosis factor (Homo sapiens, UniProt P01375). The assay is described as follows: analog potency on TNFa NF-kB signaling – cell-based, revised, SAR follow-up (AID 2337). Type of assay: functional.
Assay [5] concerns the target T1, Nucleotide-binding oligomerization domain-containing protein 1 (Homo sapiens, UniProt Q9Y239).
T1 sequence (Q9Y239 whole entry): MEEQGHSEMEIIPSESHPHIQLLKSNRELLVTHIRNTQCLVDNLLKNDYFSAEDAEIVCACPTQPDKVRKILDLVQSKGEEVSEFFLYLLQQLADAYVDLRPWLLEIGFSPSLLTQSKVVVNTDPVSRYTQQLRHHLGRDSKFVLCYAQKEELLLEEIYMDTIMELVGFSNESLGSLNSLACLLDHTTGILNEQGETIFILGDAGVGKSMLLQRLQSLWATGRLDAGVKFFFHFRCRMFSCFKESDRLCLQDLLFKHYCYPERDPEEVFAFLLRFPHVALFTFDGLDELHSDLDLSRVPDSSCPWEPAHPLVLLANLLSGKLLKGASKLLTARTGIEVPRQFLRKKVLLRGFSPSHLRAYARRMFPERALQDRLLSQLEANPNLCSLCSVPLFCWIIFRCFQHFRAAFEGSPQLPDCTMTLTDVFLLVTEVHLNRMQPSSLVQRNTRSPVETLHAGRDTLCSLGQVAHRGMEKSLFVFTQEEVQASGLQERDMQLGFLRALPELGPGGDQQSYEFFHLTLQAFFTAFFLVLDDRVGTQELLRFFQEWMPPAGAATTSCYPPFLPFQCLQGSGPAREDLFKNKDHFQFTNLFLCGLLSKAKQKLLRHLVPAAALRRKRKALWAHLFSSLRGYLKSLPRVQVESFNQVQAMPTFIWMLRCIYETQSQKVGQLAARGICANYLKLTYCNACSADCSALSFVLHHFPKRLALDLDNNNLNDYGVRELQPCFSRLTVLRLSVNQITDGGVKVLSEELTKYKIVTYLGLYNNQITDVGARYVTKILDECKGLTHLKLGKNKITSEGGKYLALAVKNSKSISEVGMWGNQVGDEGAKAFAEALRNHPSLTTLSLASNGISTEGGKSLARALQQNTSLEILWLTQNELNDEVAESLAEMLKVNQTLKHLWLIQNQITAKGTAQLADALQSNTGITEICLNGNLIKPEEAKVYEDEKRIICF
Briefly: blockers of NOD1 pathway activity – revised, SAR follow-up (AID 2333). The class given is functional.

For the next assay, the system named is INS1. The assay is described as follows: INS-1E survival protection against cytokine death – cell-based, luminescence, retest, dose response (AID 449756).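 Also: cell death triggered by IL-1 beta plus TNF-alpha plus IFN-gamma mixture; protective hits raise ATP signal compared with cytokine alone wells.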 The class given is functional. Particulars: Rattus norvegicus.
Another assay deals with Galanin receptor type 3 (Homo sapiens, UniProt O60755). Briefly: Fluorescence-based cell-based primary high throughput dose response assay to identify antagonists of the Galanin Receptor 3 (GalR3). Type of assay: functional.
A further assay in a line: cells. Type of assay: functional, cell-based. Particulars: HEK-CNG.
Assay [6] concerns the target T2, COUP transcription factor 2 (Homo sapiens, UniProt P24468).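 Also: HEK293 cells transiently cotransfected with COUP-TFII expression vector and reporter; luciferase reporter luminescence driven by COUP-TFII from the pX2-168 reporter plasmid.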
T2 sequence (P24468 whole entry): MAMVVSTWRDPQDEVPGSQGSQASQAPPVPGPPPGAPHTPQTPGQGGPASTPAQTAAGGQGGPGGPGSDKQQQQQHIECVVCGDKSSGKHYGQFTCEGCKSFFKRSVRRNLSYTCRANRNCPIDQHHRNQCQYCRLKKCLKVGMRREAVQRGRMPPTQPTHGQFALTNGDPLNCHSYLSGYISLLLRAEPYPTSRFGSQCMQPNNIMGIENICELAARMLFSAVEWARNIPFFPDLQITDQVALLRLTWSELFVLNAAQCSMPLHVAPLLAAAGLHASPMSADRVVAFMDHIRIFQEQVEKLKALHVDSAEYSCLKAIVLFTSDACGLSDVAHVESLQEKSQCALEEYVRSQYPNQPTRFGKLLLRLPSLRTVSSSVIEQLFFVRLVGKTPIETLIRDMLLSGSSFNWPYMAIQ
The assay is described as follows: Luminescence-based cell-based high throughput dose response assay to identify inhibitors of COUP-TFII (NR2F2). Type of assay: functional.

Assay [7] deals with HEK293. Briefly: cells. The conditions noted are these: Homo sapiens.
Another assay has as its target Paired box protein Pax-8 (Homo sapiens, UniProt Q06710). Briefly: PAX8 transcriptional activity inhibition in RMG-I – RMG-I cells, luciferase, cherry-pick, dose response (AID 687027).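 Also: luciferase reporter driven by Pax8 target thyroperoxidase promoter measured by SteadyGlo luminescence.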 The class given is functional, cell-based.
Assay [8] in a line: OVCAR-3 cell viability loss – plate reader, dry powder samples, PAX8 inhibitor project, dose response (AID 743044). The class given is functional, cell-based.
Assay [9] can be described thus: IGROV1 cell killing – plate reader, dry powder samples, PAX8 inhibitor project, dose response (AID 743043). The class given is functional, cell-based. The conditions noted are these: IGROV-1.
A short description of assay [10]: OVCAR8 cell viability loss – plate reader, dry powder samples, PAX8 project, dose response (AID 743197). The conditions noted are these: OVCAR-8. The class given is functional, cell-based.
Assay [11] is described as follows: A549 cell cytotoxicity, dose response, cytotoxicity control, plate reader, cherry-pick, antagonist series (AID 743412). Type of assay: functional, cell-based.
A short description of assay [12]: toxicity toward HepG2 liver cells – cell-based, plate reader, cherry-pick, antagonist series, cytotoxicity control, dose response (AID 743416). The class given is functional.
Assay [13] can be described thus: blockers of bursicon-stimulated LGR2 cAMP reporter – cell-based, HEK293, CRE-luciferase reporter, cherry pick, set 2, dose response (AID 743343).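 Also: transfected cells were stimulated with diluted bursicon conditioned medium after compound addition.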 Type of assay: functional. In general terms: Reporter assays use an easily measured gene product as a stand-in for the process of interest.
The nature of assay [14]: blockade of melanocortin 4 receptor signaling – cell-based, plate reader, cherry pick, counter-screen for LGR2 antagonist project, dose response (AID 743444).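 Also: transfected HEK 293 cells stimulated with alpha-MSH peptide; potency of inhibitors of the alpha-MSH evoked signal.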 The class given is functional. (The purpose of a counterscreen is to sort out artefacts and off-target activity.)
Assay [15] in a line: viability loss in HEK293 cells – cell-based, plate reader, cherry-picked samples, cytotoxicity control, dose response (AID 743446). Type of assay: functional.

Active and inactive are the calls of the source. Bounds are passed on as bounds.

Tumor necrosis factor, sequence (P01375 whole entry, the tested form may be a part): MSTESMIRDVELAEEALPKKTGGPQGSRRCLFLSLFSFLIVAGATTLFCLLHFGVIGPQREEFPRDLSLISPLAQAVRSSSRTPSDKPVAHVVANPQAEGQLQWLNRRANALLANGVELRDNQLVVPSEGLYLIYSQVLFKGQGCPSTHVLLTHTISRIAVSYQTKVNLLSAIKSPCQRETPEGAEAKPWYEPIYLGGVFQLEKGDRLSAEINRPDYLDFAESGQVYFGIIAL
Paired box protein Pax-8, sequence (Q06710 whole entry): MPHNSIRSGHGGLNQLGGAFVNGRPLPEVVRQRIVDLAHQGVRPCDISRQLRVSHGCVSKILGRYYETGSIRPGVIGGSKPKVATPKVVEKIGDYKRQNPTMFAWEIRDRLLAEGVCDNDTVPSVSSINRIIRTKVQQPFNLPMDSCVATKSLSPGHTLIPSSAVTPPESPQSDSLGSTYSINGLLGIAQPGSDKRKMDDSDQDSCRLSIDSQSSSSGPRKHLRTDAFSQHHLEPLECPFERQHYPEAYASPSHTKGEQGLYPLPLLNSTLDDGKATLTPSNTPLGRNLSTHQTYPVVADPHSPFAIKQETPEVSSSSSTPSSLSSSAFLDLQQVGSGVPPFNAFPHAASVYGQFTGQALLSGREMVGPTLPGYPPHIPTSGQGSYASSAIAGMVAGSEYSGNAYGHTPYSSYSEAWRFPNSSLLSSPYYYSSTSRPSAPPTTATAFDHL
Galanin receptor type 3, sequence (O60755 whole entry): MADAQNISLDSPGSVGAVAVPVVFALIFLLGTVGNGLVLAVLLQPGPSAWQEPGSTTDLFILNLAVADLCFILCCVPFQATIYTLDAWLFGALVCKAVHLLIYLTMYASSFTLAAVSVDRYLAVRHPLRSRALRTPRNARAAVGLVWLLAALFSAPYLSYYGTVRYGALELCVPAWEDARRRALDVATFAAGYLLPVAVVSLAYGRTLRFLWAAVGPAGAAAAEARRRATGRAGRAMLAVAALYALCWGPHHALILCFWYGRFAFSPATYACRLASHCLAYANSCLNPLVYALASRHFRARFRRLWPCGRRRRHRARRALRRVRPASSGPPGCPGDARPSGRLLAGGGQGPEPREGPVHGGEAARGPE

One may read the EC50 as the concentration giving half of the maximal effect. A word on the IC50: it is the point on the concentration scale where inhibition reaches its midpoint. One may read the AC50 as the concentration giving half of the maximal activity seen. For `C=CCC1(CC=C)CCCN1C(=O)c1cc(COc2ccc(C)nc2)on1`, the EC50 with HEK293 [1] is 2.7 µM (active); in the assay “cells” it was > 29.9 µM (inactive). The IC50 was 4.44 µM (active) in the assay with HEK293 [2]; 14.1 µM (active) in the assay with HEK293 [3]; 7.3 µM (active) in the assay on HEK293 [4]; 4.24 µM (active) at Tumor necrosis factor; 2.67 µM (active) in assay [5]; 1.25 µM (active) on Galanin receptor type 3. The figures for the IC50 (in assay [6]; in the assay on HEK293 [7]) were 11.8 µM (inactive) and 19 µM (active), respectively. Moreover, the AC50 with INS1 is 2.13 µM (active).

With `COc1ccc(S(=O)(=O)Nc2ccc3c(c2)C(=O)N([C@@H](C)CO)C[C@H](C)[C@@H](CN(C)C(=O)Nc2ccc(C(F)(F)F)cc2)OCCCC[C@@H](C)O3)cc1`, the AC50 is 9.96 µM (active) on Paired box protein Pax-8, 20.5 µM (active) in assay [8], 41.5 µM (active) in [9] and 29.6 µM (active) in [10].

Consider `COc1ccc(S(=O)(=O)Nc2ccc3c(c2)CC(=O)N([C@@H](C)CO)C[C@H](C)[C@@H](CN(C)Cc2ccc(Cl)c(Cl)c2)O3)cc1`, for which the AC50 in [11] is 12.4 µM (active); in [12] it was 14.3 µM (active); in [13] it was 20.5 µM (active); in assay [14], 15.9 µM (active); in assay [15], 15.7 µM (active).

Source of the values: ChEMBL document CHEMBL1201862, “PubChem BioAssay data set” (2004).
